Counter-ions that a name gives are not always drawn. Like-named read-outs stand apart in the source and are kept apart here.
Legend:
TAK1-TAB1 fusion protein = molecular target: T1, TAK1-TAB1 fusion protein (Homo sapiens, UniProt O43318); experiment: TAK1 biochemical assay (AlphaScreen, GST-MAP2K7 substrate)
T1 construct: purchased Carna
T1 sequence (O43318 with tags, fused parts or gaps limits assumed): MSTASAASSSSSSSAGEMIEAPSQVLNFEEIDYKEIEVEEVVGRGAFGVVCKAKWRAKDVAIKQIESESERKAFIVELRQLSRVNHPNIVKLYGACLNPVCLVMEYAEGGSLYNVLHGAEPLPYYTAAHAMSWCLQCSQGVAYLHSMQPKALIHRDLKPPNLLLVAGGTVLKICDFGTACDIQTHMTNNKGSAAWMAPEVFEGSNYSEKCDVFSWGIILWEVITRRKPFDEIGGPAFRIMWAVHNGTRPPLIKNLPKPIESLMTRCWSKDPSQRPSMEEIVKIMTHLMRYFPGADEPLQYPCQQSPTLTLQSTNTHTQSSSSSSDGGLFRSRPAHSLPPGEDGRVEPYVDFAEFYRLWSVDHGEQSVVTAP

pJNK in HCT-116 cells = experiment: Phospho-JNK (Thr183/Tyr185) Meso Scale ELISA assay, TNFα-stimulated HCT-116 cells; assay type: cell-based; details: Homo sapiens, read-out: mean HCT-116 pJNK ELISA IC50 (Col. B)
Protocol: Detailed below are ELISA assays for pJNK and p38, and a TAK1 biochemical assay. […] In Table 1, Col.
Phospho-JNK (Thr183/Tyr185) Meso Scale ELISA Assay
• 1. Plate HCT-116 cells at 25,000 per well in 100 uL in 96 well clear dishes in normal growth medium. Day 2: • 1. Aspirate medium and replace with 90 μl reduced serum growth medium (1% FCS), incubate for 2 hours at 37° C. • 2. Make drugs at 10× in reduced serum medium and add 10 uL per well. • 3. Incubate at 37° C. for 4 hrs. • 4. Bring capture plates to room temperature. • 5. Block with 150 μl Blocking Solution (provided with kit) (600 mg Blocker A into 20 mL 1× Wash Buffer per plate) at room temperature with shaking. • 6. Wash plates 4× with 200 μl 1× wash buffer (10× provided with kit) before transferring lysates. • 7. Dilute TNFα to […] in reduced serum medium (this makes a 10× working stock). • 8. Add 10 μl TNFα to all wells except negative control wells, final concentration is 10 ng/mL. • 9. Incubate at 37° C. for 10 minutes. • 10. Remove medium by flicking into sink • 11. Wash cells with 100 uL ice cold PBS. • 12. Remove PBS by flicking into sink and patting on paper towels. • 13. Lyse cells in 50 μl ice cold 1× Complete Lysis Buffer plus Phosphatase and Protease inhibitors (all provided with kit) (10 mL Tris Lysis Buffer+200 μl Protease inhibitor solution+100 μl Phosphatase inhibitor I+100 μl Phosphatase inhibitor II). • 14. Incubate with shaking at 4° C. for 30 minutes. • 15. Transfer 45 μl to capture plate, cover with adhesive cover, and incubate at 4° C. over night with shaking. • Day 3: • 1. Wash plates 4× with 200 μl 1× wash buffer (10× provided with kit). • 2. […] Incubate at room temperature with shaking for 1 hour. • 4. Wash 4× with 200 μl 1× Wash Buffer. • 5. […] Read on Sector Imager. Phospho-p38 Meso Scale ELISA Assay Day 1: • 1. Plate HCT-116 cells at 25,000 per well in 100 uL in 96 well clear dishes in normal growth medium. zday 2: • 1. Aspirate medium and replace with 90 μl reduced serum growth medium (1% FCS), incubate for 2 hours at 37° C. • 2. Make drugs at 10× in reduced serum medium and add 10 uL per well. • 3. Incubate at 37° C. for 4 hrs. • 4. Bring capture plates to room temperature. • 5. Block with 150 μl Blocking Solution (provided with kit) (600 mg Blocker A into 20 mL 1× Wash Buffer per plate) at room temperature with shaking. • 6. Wash plates 4× with 200 μl 1× wash buffer (10× provided with kit) before transferring lysates. • 7. Dilute TNFα to […] in reduced serum medium (this makes a 10× working stock). • 8. Add 10 μl TNFα to all wells except negative control wells, final concentration is 10 ng/mL. • 9. Incubate at 37° C. for 10 minutes. • 10. Remove medium by flicking into sink • 11. Wash cells with 100 uL ice cold PBS. • 12. Remove PBS by flicking into sink and patting on paper towels. • 13. Lyse cells in 50 μl ice cold 1× Complete Lysis Buffer plus phosphatase and protease inhibitors (all provided with kit) (10 mL Tris Lysis Buffer+200 μl Protease inhibitor solution+100 μl Phosphatase inhibitor I+100 μl Phosphatase inhibitor II). • 14. Incubate with shaking at 4° C. for 30 minutes. • 15. Dilute lysates before transferring to capture plate with 100 μl Complete p38 Lysate • Dilution Buffer (provided with kit) (10 mL of Diluent 20±200 μl Protease inhibitor solution+100 μl Phosphatase inhibitor I+100 μl Phosphatase inhibitor II). • 16. Transfer 50 μl of diluted lysates to capture plate, cover with adhesive cover, and incubate at 4° C. over night with shaking. Day 3: • 1. Wash plates 4× with 200 μl 1× wash buffer (10× provided with kit). • 2. […] Incubate at room temperature with shaking for 1 hour. • 4. Wash 4× with 200 μl 1× Wash Buffer. • 5. […] Read on Sector Imager. TAK1 Biochemical Assay

[1] = TAK1-TAB1 fusion protein, GST-MAP2K7 substrate, read-out: mean TAK1 IC50 (Col. A)

## CC(=O)N1[C@@H]2CC[C@H]1C[C@H](n1cc(-c3cnc(N)c4oc(-c5cccc6cnsc56)cc34)cn1)C2 [Example 327, 1-[(3-exo)-3-{4-[7-amino-2-(1,2-benzisothiazol-7-yl)furo[2,3-c]pyridin-4-yl]-1H-pyrazol-1-yl}-8-azabicyclo[3.2.1]oct-8-yl]ethanone]
TAK1-TAB1 fusion protein; [1]
  IC50: < 100 nM
pJNK in HCT-116 cells
  IC50: < 100 nM

## Nc1ncc(-c2cnn([C@H]3CC[C@H](O)CC3)c2)c2c(Cl)c(-c3cccc4nnsc34)oc12 [Example 286, trans-4-{4-[7-amino-2-(1,2,3-benzothiadiazol-7-yl)-3-chlorofuro[2,3-c]pyridin-4-yl]-1H-pyrazol-1-yl}cyclohexanol]
TAK1-TAB1 fusion protein
  IC50: < 100 nM
pJNK in HCT-116 cells
  IC50: < 100 nM

## COCCCn1cc(-c2cnc(N)c3oc(-c4csc5cnccc45)cc23)cn1 [Example 342, 4-[1-(3-methoxy-propyl)-1H-pyrazol-4-yl]-2-thieno[2,3-c]pyridin-3-yl-furo[2,3-c]pyridin-7-ylamine]
TAK1-TAB1 fusion protein; [1]
  IC50: 100 to 1000 nM
pJNK in HCT-116 cells
  IC50: 100 to 1000 nM

## Nc1ncc(-c2cnn(C3CCN(C(=O)CCc4ccccc4)CC3)c2)c2cc(-c3csc4cnccc34)oc12 [Example 331, 1-{4-[4-(7-amino-2-thieno[2,3-c]pyridin-3-yl-furo[2,3-c]pyridin-4-yl)-pyrazol-1-yl]-piperidin-1-yl}-3-phenyl-propan-1-one]
TAK1-TAB1 fusion protein; [1]
  IC50: 100 to 1000 nM
pJNK in HCT-116 cells
  IC50: 100 to 1000 nM

## Nc1ncc(-c2cnn([C@H]3CC[C@H](O)C3)c2)c2cc(-c3csc4cnccc34)oc12 [Example 307, (1S,3S)-3-[4-(7-amino-2-thieno[2,3-c]pyridin-3-yl-furo[2,3-c]pyridin-4-yl)-pyrazol-1-yl]-cyclopentanol]
TAK1-TAB1 fusion protein; [1]
  IC50: < 100 nM
pJNK in HCT-116 cells
  IC50: 100 to 1000 nM

## Nc1ncc(-c2cnn([C@@H]3CCC[C@H](O)C3)c2)c2cc(-c3csc4cnccc34)oc12 (relative stereo) [Example 310, cis-3-[4-(7-amino-2-thieno[2,3-c]pyridin-3-yl-furo[2,3-c]pyridin-4-yl)-pyrazol-1-yl]-cyclohexanol]
TAK1-TAB1 fusion protein; [1]
  IC50: < 100 nM
pJNK in HCT-116 cells
  IC50: < 100 nM

## COCc1nc2cccc(-c3cc4c(-c5cnn([C@H]6CC[C@H](O)CC6)c5)cnc(N)c4o3)c2s1 [Example 349, trans-4-(4-{7-amino-2-[2-(methoxymethyl)-1,3-benzothiazol-7-yl]furo[2,3-c]pyridin-4-yl}-1H-pyrazol-1-yl)cyclohexanol Trifluoroacetate (salt)]
TAK1-TAB1 fusion protein; [1]
  IC50: < 100 nM
pJNK in HCT-116 cells
  IC50: < 100 nM

## N#Cc1ccc2cnsc2c1-c1cc2c(-c3cnn([C@H]4CC[C@H](O)CC4)c3)cnc(N)c2o1 [Example 372, 7-{7-amino-4-[1-(trans-4-hydroxycyclohexyl)-1H-pyrazol-4-yl]furo[2,3-c]pyridin-2-yl}-1,2-benzothiazole-6-carbonitrile.diformate]
TAK1-TAB1 fusion protein; [1]
  IC50: 1000 to 10000 nM
pJNK in HCT-116 cells
  IC50: 100 to 1000 nM

## Nc1ncc(-c2cnn([C@H]3CC[C@H](O)CC3)c2)c2cc(-c3cccc4cnncc34)oc12 [Example 366, trans-4-{4-[7-amino-2-(phthalazin-5-yl)furo[2,3-c]pyridin-4-yl]-1H-pyrazol-1-yl}cyclohexanol]
TAK1-TAB1 fusion protein; [1]
  IC50: < 100 nM
pJNK in HCT-116 cells
  IC50: < 100 nM

## Cc1ncc(-c2cnc(N)c3oc(-c4csc5cnccc45)cc23)s1 [Example 388, 4-(2-methyl-1,3-thiazol-5-yl)-2-(thieno[2,3-c]pyridin-3-yl)furo[2,3-c]pyridin-7-amine trifluoroacetate]
TAK1-TAB1 fusion protein; [1]
  IC50: 100 to 1000 nM
pJNK in HCT-116 cells
  IC50: 100 to 1000 nM

## CC(C)CNC(=O)N1CCC(n2cc(-c3cnc(N)c4oc(-c5cccc6cnsc56)cc34)cn2)CC1 [Example 338, 4-[4-(7-amino-2-benzo[d]isothiazol-7-yl-furo[2,3-c]pyridin-4-yl)-pyrazol-1-yl]-piperidine-1-carboxylic acid isobutyl-amide]
TAK1-TAB1 fusion protein; [1]
  IC50: 100 to 1000 nM
pJNK in HCT-116 cells
  IC50: 100 to 1000 nM

## Cc1c(-c2cccc3nnsc23)oc2c(N)ncc(-c3cnn([C@H]4CC[C@H](O)CC4)c3)c12 [Example 362, trans-4-{4-[7-amino-2-(1,2,3-benzothiadiazol-7-yl)-3-methylfuro[2,3-c]pyridin-4-yl]-1H-pyrazol-1-yl}cyclohexanol]
TAK1-TAB1 fusion protein; [1]
  IC50: < 100 nM
pJNK in HCT-116 cells
  IC50: < 100 nM

## CC(=O)N1CCC(n2cc(-c3cnc(N)c4oc(-c5ccc(F)c6cnsc56)cc34)cn2)CC1 [Example 223, 1-(4-{4-[7-amino-2-(4-fluoro-1,2-benzothiazol-7-yl)furo[2,3-c]pyridin-4-yl]-1H-pyrazol-1-yl}piperidin-1-yl)ethanone diformate salt]
TAK1-TAB1 fusion protein; [1]
  IC50: 100 to 1000 nM
pJNK in HCT-116 cells
  IC50: 100 to 1000 nM

## Cc1nn([C@H]2CC[C@H](O)CC2)cc1-c1cnc(N)c2oc(-c3csc4cnccc34)cc12 [Example 304, 4-[4-(7-amino-2-thieno[2,3-c]pyridin-3-yl-furo[2,3-c]pyridin-4-yl)-3-methyl-pyrazol-1-yl]-cyclohexanol]
TAK1-TAB1 fusion protein; [1]
  IC50: 1000 to 10000 nM

## Nc1ncc(-c2cnn(C3CNC3)c2)c2cc(-c3cccc4cnccc34)oc12 [Example 64, 4-[1-(azetidin-3-yl)-1H-pyrazol-4-yl]-2-(isoquinolin-5-yl)furo[2,3-c]pyridin-7-amine]
TAK1-TAB1 fusion protein; [1]
  IC50: 100 to 1000 nM

## COC(=O)c1cc2cc(-c3cc4c(-c5cnn(C6CCNCC6)c5)cnc(N)c4o3)ccc2s1 [Example 47, methyl 5-{7-amino-4-[1-(piperidin-4-yl)-1H-pyrazol-4-yl]furo[2,3-c]pyridine-2-yl}-1-benzothiophene-2-carboxylate]
TAK1-TAB1 fusion protein; [1]
  IC50: 1000 to 10000 nM

## Nc1ncc(-c2ccc(-c3ccccc3)s2)c2cc(-c3csc4cnccc34)oc12 [Example 385, 4-(5-phenyl-thiophen-2-yl)-2-thieno[2,3-c]pyridin-3-yl-furo[2,3-c]pyridin-7-ylamine]
TAK1-TAB1 fusion protein; [1]
  IC50: > 10000 nM

## CC(=O)N1CCC(n2cc(-c3cnc(N)c4oc(-c5ccccc5C(F)(F)F)cc34)cn2)CC1 [Example 411, 1-[4-(4-{7-amino-2-[2-(trifluoromethyl)phenyl]furo[2,3-c]pyridin-4-yl}-1H-pyrazol-1-yl)piperidin-1-yl]ethanone]
TAK1-TAB1 fusion protein; [1]
  IC50: > 10000 nM

## Cn1cc(-c2cnc(N)c3oc(-c4csc5cnccc45)cc23)c(C#N)n1 [Example 345, 4-(7-amino-2-thieno[2,3-c]pyridin-3-yl-furo[2,3-c]pyridin-4-yl)-1-methyl-1H-pyrazole-3-carbonitrile]
TAK1-TAB1 fusion protein; [1]
  IC50: > 10000 nM

## CC(=O)N1CCC(n2cc(-c3cnc(N)c4oc(-c5cccc(N(C)C)c5)cc34)cn2)CC1 [Example 116]
TAK1-TAB1 fusion protein; [1]
  IC50: 1000 to 10000 nM

## Nc1ncc(-c2cnn([C@H]3CC[C@H](O)CC3)c2)c2cc(-c3c(-c4cccc(F)c4)ccc4cnsc34)oc12 [Example 356, trans-4-(4-{7-amino-2-[6-(3-fluorophenyl)-1,2-benzothiazol-7-yl]furo[2,3-c]pyridin-4-yl}-1H-pyrazol-1-yl)cyclohexanol]
TAK1-TAB1 fusion protein; [1]
  IC50: > 10000 nM

Source: patent US8378104B2 (OSI Pharmaceuticals, LLC, priority 2010, dated 2013)
